The Papp A→B is the apparent permeability from the apical to the basolateral side of a cell layer. By Papp B→A is commonly meant how fast a substance crosses the layer from the basolateral side.

The source of these data is US12274706B2 (MEDAC GESELLSCHAFT FUER KLINISCHE SPEZIALPRAEPARATE MBH, priority 2017, dated 2025).

One data set is described as follows: Water vapor uptake (GVS). It is filed as physicochemical.
Data set [1] in a line: Solubility of sulfasalazine, Form A meglumine salt and pharmaceutical compositions (HPLC). The class given is physicochemical. How it is done:
The mobile phase consists of mobile phase (A): 1.13 g sodium dihydrogen phosphate and 2.5 g sodium acetate are dissolved in 1000 mL purified water. The pH is afterwards adjusted with acetic acid (100%) to 4.8. and mobile phase (B): 1 part mobile phase A is mixed with 4 parts of methanol for chromatography. The flow rate was 1.0 mL/min, injection volume 5 μL and detection wavelengths 320 nm (HP DAD series 1100). Run time is 10 min. Quantitation was performed using external standard methodology. The assay method has been validated with respect to selectivity, repeatability and linearity. Samples are prepared with dilute ammonia R3 PhEur.
The saturated solutions were filtrated using centrifuge filters (Nylon, […]) and the clear supernatants were respectively injected either directly or after dilution with dilute ammonia R3 PhEur.
The resulting solution is further diluted with phosphate buffer (pH 6.8) to 1% v/v solution prior. The resulting phosphate buffer solution is diluted with dilute ammonia R3 prior to injection.

The conditions of data set [2]: cited from earlier work.
The conditions of data set [3]: cited from earlier work. The source holds these as a separate data set.
Data set [4] concerns binding of TNF-alpha to its receptor. To be noted: 125I-TNF-alpha displacement; cited from earlier work.
Another data set is described as follows: in vitro. To be noted: human, Caco-2.
A further data set can be described thus: physchem. To be noted: de-ionized water, 24 °C.

Structures are written as SMILES. In brackets after ≈: the same amount, converted by molar mass. Several values for one entry are separate records, joined by “and”; a condition that tells them apart may be missing. Equal values may be shown once. Read-outs that look alike come from different tables or passages of the source.

As for `CCNCC.O=C(O)c1cc(N=Nc2ccc(S(=O)(=O)Nc3ccccn3)cc2)ccc1O` [Form A diethylamine salt, diethylamine 2-hydroxy-5-[2-[4-[(2-pyridinylamino)sulfonyl]phenyl]diazenyl]-benzoate, crystal Form A], in “Water vapor uptake (GVS)”, the “water vapor uptake (GVS; % w/w) at 30% RH” value is listed as 0.3 % w/w and the “water vapor uptake (GVS; % w/w) at 80% RH” value was 0.5 % w/w.

With `CNCC(O)C(O)C(O)C(O)CO.O=C(O)c1cc(N=Nc2ccc(S(=O)(=O)Nc3ccccn3)cc2)ccc1O` [Form A meglumine salt, D(−)-N-methylglucamine 2-hydroxy-5-[2-[4-[(2-pyridinylamino)sulfonyl]phenyl]diazenyl]-benzoate, crystal Form A], the “solubility in de-ionized water at 24° C. and pH 6.6” value is above 54 mg/mL. The “Solubility (mg/mL) FaSSIF-V2” value in data set [1] (FaSSIF-V2 medium, room temperature (20-25° C.), saturated solution) came out at 15.3 mg/mL. Moreover, in data set [1] (water, diluted in phosphate Buffer pH 6.8), the “Solubility (mg/mL) Water” value came to 60.3 mg/mL. In data set [1] (water, room temperature), the “Solubility (mg/mL) Water” value is on record as 104.8 mg/mL. For the same molecule, in the data set “Water vapor uptake (GVS)” (listed as 4.1), the “water vapor uptake (GVS; % w/w) at 30% RH” value is given as below 0.4 % w/w and the “water vapor uptake (GVS; % w/w) at 80% RH” value is below 0.9 % w/w. In addition, in “Water vapor uptake (GVS)” (listed as 4.2), the “water vapor uptake (GVS; % w/w) at 30% RH” value was 0.4 % w/w. The “water vapor uptake (GVS; % w/w) at 80% RH” value in “Water vapor uptake (GVS)” was determined as 1.1 % w/w.

With `C1CNCCN1.O=C(O)c1cc(N=Nc2ccc(S(=O)(=O)Nc3ccccn3)cc2)ccc1O` [Form A piperazine salt, piperazine 2-hydroxy-5-[2-[4-[(2-pyridinylamino)sulfonyl]phenyl]diazenyl]-benzoate, crystal Form A], in the data set “Water vapor uptake (GVS)”, the “water vapor uptake (GVS; % w/w) at 30% RH” value was 0.4 % w/w and the “water vapor uptake (GVS; % w/w) at 80% RH” value is listed as 0.9 % w/w.

As for `Nc1ccc(S(=O)(=O)Nc2ccccn2)cc1` [sulfapyridine], the systemic bioavailability result in data set [2] (metabolite formed from non-absorbed sulfasalazine by gut flora) is “about 60%”.

Turning to `O=C(O)c1cc(N=Nc2ccc(S(=O)(=O)Nc3ccccn3)cc2)ccc1O` [sulfasalazine, 2-hydroxy-5-[2-[4-[(2-pyridinylamino)sulfonyl]phenyl]diazenyl]-benzoic acid], the solubility at 24 h in data set [1] (pH 5.9, thermodynamic from solid, water, room temperature, read-out: Solubility (mg/mL) Water) worked out at 0.06 mg/mL. Moreover, the solubility at 24 h in data set [1] (pH 6.3, thermodynamic from solid, FaSSIF-V2 medium, room temperature (20-25° C.), saturated solution, read-out: Solubility (mg/mL) FaSSIF-V2) worked out at 0.78 mg/mL. For the same molecule, the “solubility in de-ionized water at 24° C.” value in data set [3] (24° C., literature value) is 30 µg/mL and 31 µg/mL. In addition, the “solubility class according to United States Pharmacopoeia (practically insoluble)” value in data set [3] (USP classification) was below 100 µg/mL. The solubility in water result in data set [3] (water) is “less than 5 mg/100 ml”. Further, in data set [2] (intravenously administered), the half-life entry is “approximately 7.6±3.6 hours”. Further, the “median peak concentration (time)” value in data set [2] (man, oral) is 6 h. The “binding of TNF-alpha to its receptor” value in data set [4] is listed as “inhibits”. In “in vitro”, this molecule yielded a Papp A→B at 180 min, 200 μg/mL of 1.16 ×10⁻⁶ cm/s; an apical-to-basolateral permeability (Papp A→B) at 180 min, 2000 μg/mL of 0.81 ×10⁻⁶ cm/s; an apparent permeability from basolateral to apical (Papp B→A) at 180 min, 200 μg/mL of 4.76 ×10⁻⁶ cm/s; an apparent permeability from basolateral to apical (Papp B→A) at 180 min, 2000 μg/mL of 2.79 ×10⁻⁶ cm/s. The molecule also showed a solubility in “physchem” of 60 µg/mL (≈ 151 µM).
